Experimental data taken from patent US8501246B2, “Cosmetic composition containing lingonberry extract and its uses” (Beijing Gingko Group Biological Technology, Co., Ltd., priority 2007, dated 2013).

Tests used:
Format in all cases: cell-based
B16 melanocytes [1] = assay: MTT cell multiplication / cell survival ratio of B16 melanocytes; details: blank = 100, n = 6
Protocol: B16 melanocytes (from SIBCB) were cultivated with RPMI-1640 culture fluid containing about 10% newborn calf serum and penicillium—streptomycin under the condition of about 37° C., about 5% CO2. Digest the melanocytes with about 0.125% trypsin (Difco, US) when the cell fusion reached more than about 80%.
The activity of melanocytes multiplication was determined by measurement of […] (MTT). The B16 melanocytes at densities of about 1×10^5 were inoculated in 24-well cell cultured plate. The culture fluid was changed next day and the tested substances in different concentration were added individually: the lingonberry extract III prepared in example 3 (comprised anthocyanidin about 10%, OPC about 35% and resveratrol about 10%), arbutin bought from the market, and blank as control group.
After 20 hours cultivation and adding about 0.15 ml MTT, the cells were cultivated continuously for about 4 hours. Centrifuged at 3000 rpm for about 10 min and deserted the supernatant, cultivated cells in every well were added DMSO (about 1%) about 1 ml and shook for dissolving thoroughly. Then about 150 μl cultivated cells aspiration were added into 96-well cell cultured plate. The OD value of the aspiration was measured with MQX200 micro-plate spectrophotometer (Bio-Tek, US), at 570 nm excitation wave length and 630 nm reference wave length.
Calculated the inhibition ratio of tested agents on melanocytes using the following formula: melanocytes multiplication inhibition ratio=(1−OD of tested group/OD of control group)*100%
The experimental method was the same as example 4. The lingonberry extract III was prepared by the method in example 3, pine bark extract and grape seed extract were both bought from market, blank was used as control group.

[2] = target: T1, B16 melanocytes' tyrosinase (Mus musculus, UniProt P11344); assay: Inhibition rate of B16 melanocytes' tyrosinase activity (L-dopa oxidation, OD 475 nm); details: 3 days, n = 6
T1 construct: The cells were dissolved by 1% Troton X-100; host or cells: B16 melanocytes (melanoma cells)
T1 sequence (P11344 19-533): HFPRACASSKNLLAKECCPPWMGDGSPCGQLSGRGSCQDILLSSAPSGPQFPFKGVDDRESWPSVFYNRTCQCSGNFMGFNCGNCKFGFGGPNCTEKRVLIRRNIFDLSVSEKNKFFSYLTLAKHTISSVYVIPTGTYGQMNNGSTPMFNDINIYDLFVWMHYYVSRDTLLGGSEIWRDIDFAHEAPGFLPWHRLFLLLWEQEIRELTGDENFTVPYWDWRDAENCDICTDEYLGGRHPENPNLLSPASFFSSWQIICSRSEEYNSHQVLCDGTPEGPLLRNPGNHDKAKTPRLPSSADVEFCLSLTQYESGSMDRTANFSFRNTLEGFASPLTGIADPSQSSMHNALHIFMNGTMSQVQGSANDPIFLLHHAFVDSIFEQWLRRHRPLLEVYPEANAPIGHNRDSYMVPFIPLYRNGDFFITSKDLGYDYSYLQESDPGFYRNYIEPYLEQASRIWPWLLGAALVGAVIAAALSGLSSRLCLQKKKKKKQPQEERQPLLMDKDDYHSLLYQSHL
Protocol: (§1) B16 melanocytes(from SIBCB) were cultivated with RPMI-1640 culture fluid containing 10% newborn calf serum and penicillium—streptomycin under the condition of about 37° C., 5% CO2. The melanocytes were digested with about 0.125% trypsin (Difco, US) to be passaged or tested when the cell fusion reached more than 80%.
Tyrosinase activity is determined by the speed of dopa being oxidized into dopaquinone. L-dopa was used as catalysis substrate. Optical density (OD) of dopaquinone was determined at 475 nm by improved Marlinez-Esparza method. (Ando H, Itoh A, Mishima Y et al., Correlation between the number of melanosomes, tyrosinase mRNA levels, and tyrosinase activity cultured murine melanoma cells in response to various melanogenesis regulatory agents. J Cell Physiol, 1995, 163: 608-614.). The higher of the OD, the stronger of the tyrosinase.
The lingonberry extract III was prepared by the method in example 3, other materials were all bought from market.
After 3 days of effects of tested substance, the supernatant was deserted and the remainder was washed for 3 times with pH 7.0 PBS after centrifuging at 1000 rpm for 5 min every time. The cells were dissolved by 1% Troton X-100 400 μl adding in every well of the cultured plate. 100 μl solution in every well was taken and then added into 96-well cultured plate. After pre-temperature at 37° C., 100 μl 1.7% L-dopa (sigma, US) was added into every well. The OD A value then was determined every 10 min within 1 hour at 475 nm and 37° C., using blank as zero adjustment.
Calculated every tested agents' inhibition rate of B16 melanocytes' tyrosinase activity using the following formula: inhibition rate of melanocytes' tyrosinase activity=(1−OD of tested group/OD of control group)*100%
Experiment method was the same as example 6. The lingonberry extract I, II and III used as tested substance were prepared by the method in example 1, 2 and 3 respectively.

B16 melanocytes [3] = assay: Inhibition rate of melanin content (melanogenesis) in B16 melanocytes; details: Melanocyte, 72 hours, n = 4
Protocol: as §1, with “containing about” for “containing”, “of” for “of about”, “than about” for “than”
After the cells dissolved in strong base solution, melanin was dissolved and then the OD was tested. Melanin content was determined by Hosoi improved method. (Victoria M, Virador, Nobuhiko Kobayashi et al, A standardized protocol for assessing regulators of pigmentation. Analytical Biochemistry, 1999, 270:207˜219.)
B16 melanocytes (1×10^5) were cultivated in 6-well cultured plate. After 24 hours incubation the solution was changed and different kinds of tested substances in different concentration were added respectively. The lingonberry extract III was prepared by the method in example 3, other substances were all bought from market.
After 72 hours, reactants were washed by PBS for 2 times, dried by air-drying, dissolved into 400 μl 1N NaOH (containing 1% DMSO), heated at 80° C. for 1 hour and then cooled. The OD was tested by enzyme-linked immunosorbent assay instrument at 475 nm.
Calculated every tested agents' inhibition rate of melanin content using the following formula: inhibition rate of melanin content=[1−(OD of tested group/well cell density of tested group)/(OD of control group/well cell density of control group)]*100%
Experiment method was the same as example 7. The lingonberry extract I, II and III used as tested substance were prepared by the method in example 1, 2 and 3 respectively.

- inhibition at 1 µg/mL ([2]; 1 mg/L): 7.19%
- inhibition at 5 µg/mL ([2]; 5 mg/L): 10.4 ± 2.97%
- inhibition at 10 µg/mL ([2]; 10 mg/L): 20.5 ± 1.63%
- inhibition at 20 µg/mL ([2]; 20 mg/L): 46.4 ± 2.53%
- inhibition at 30 µg/mL ([2]; 30 mg/L): 53.3 ± 2.27%
SMILES: OC[C@H]1O[C@@H](Oc2ccc(O)cc2)[C@H](O)[C@@H](O)[C@@H]1O [arbutin]
- cell survival ratio (B16 melanocytes [1]; 20 mg/L): 110.72 ± 0.41%
- cell survival ratio (B16 melanocytes [1]; 40 mg/L): 94.30 ± 0.45%
- cell survival ratio (B16 melanocytes [1]; 60 mg/L): 91.74 ± 0.39%
- cell survival ratio (B16 melanocytes [1]; 80 mg/L): 79.66 ± 1.08%
- inhibition at 1 µg/mL (B16 melanocytes [3]; 1 mg/L): 7.27 ± 2.29%
- inhibition at 5 µg/mL (B16 melanocytes [3]; 5 mg/L): 7.59 ± 0.35%
- inhibition at 10 µg/mL (B16 melanocytes [3]; 10 mg/L): 6.23 ± 0.86%
- inhibition at 20 µg/mL (B16 melanocytes [3]; 20 mg/L): 10.8 ± 0.33%
- inhibition at 30 µg/mL (B16 melanocytes [3]; 30 mg/L): 12.1 ± 1.3%
